Assay results taken from patent publication US9856294B2, “Cyclodecapeptide compounds for use as drugs” (Commissariat A L'Energie Atomique Et Aux Energies …, priority 2010, dated 2018).
Like-named read-outs stand apart in the source and are kept apart here.

Experiments:
[1] = log Kapp(Hg(II)) - log Kapp(Zn(II)), pH 7.4, 298 K
Description: (§1) The selectivity between two metals M/M′ corresponds to the selectivity of the ligand for the metal M compared with that for the metal M′, this selectivity being equal to: log(Kapp(M)/Kapp(M′))=log Kapp(M)−log Kapp(M′)

[2] = pH 7.4, 298 K
Description: These treatments must be followed for life, and must never be interrupted. They are based on chelating drugs which reduce the absorption of copper in the body, or which increase the excretion of this metal. The treatments must be subject to periodic monitoring, so as to detect the appearance of undesirable side effects.
as §1

[3] = log Kapp(Cu(II)) - log Kapp(Zn(II))

SMILES | Selectivity Hg/Zn [1] | Selectivity Cu/Zn [2, 3] | Selectivity Cu/Zn ([2]; log Kapp(Cu(I)) - log Kapp(Zn(II)))
OCC(S)CS (stereo not shown) [BAL, 2,3-dimercaptopropanol] | 12.2 |  | 
O=C(O)CN(CCN(CC(=O)O)CC(=O)O)CC(=O)O [EDTA, ethylenediaminetetraacetic acid] | 5 | 2.3 | 
CC(C)(S)[C@@H](N)C(=O)O [Pen, D-penicillamine] | 9.1 |  | 2.5
NCCNCCNCCN [Trien, triethylenetetramine] | 12.7 | 8.1 | 
